Data published in patent US7902373B2 (Pfizer Inc, priority 2006, dated 2011).
Structures can show the parent of a compound that is named as a salt.

Target: T1, human recombinant H-PGDS (Homo sapiens, UniProt O60760)
Assay: Fluorescence intensity h-PGDS TBA enzyme assay
Type: biochemical
Details: Examples up to 622 (and 3a, 3b)

T1 sequence (O60760 whole entry): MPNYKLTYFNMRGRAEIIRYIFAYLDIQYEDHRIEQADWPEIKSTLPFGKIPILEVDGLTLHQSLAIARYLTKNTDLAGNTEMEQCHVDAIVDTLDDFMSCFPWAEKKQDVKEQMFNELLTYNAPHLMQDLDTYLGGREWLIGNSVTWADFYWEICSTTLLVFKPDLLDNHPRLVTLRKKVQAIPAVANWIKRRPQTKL

Compound | IC50 [nM]
O=C(NC1CCN(Cc2ccccn2)CC1)c1ccc(-c2ccccc2F)nc1 [Example 587, 6-(2-Fluorophenyl)-N-[1-(pyridin-2-ylmethyl)piperidin-4-yl]nicotinamide] | 1.19
O=C(NC1CCN(Cc2cccc(F)c2)CC1)c1ccc(-c2ccccc2F)nc1 [Example 588, N-[1-(3-Fluorobenzyl)piperidin-4-yl]-6-(2-fluorophenyl)nicotinamide] | 0.621
CC(C)N1CCC(NC(=O)c2ccc(-c3cccc(F)c3)nc2)C1 (stereo not drawn) [Example 589, 6-(3-Fluorophenyl)-N-(1-isopropylpyrrolidin-3-yl)nicotinamide] | 33.3
O=C(NC1CCN(c2ncc3c(n2)CCOC3)C1)c1ccc(-c2cccc(F)c2)nc1 (stereo not drawn) [Example 590, N-[1-(7,8-Dihydro-5H-pyrano[43-d]pyrimidin-2-yl)pyrrolidin-3-yl]-6-(3-fluorophenyl)nicotinamide] | 0.74
CCCN1CCC(NC(=O)c2ccc(-c3cccc(F)c3)nc2)CC1 [Example 591, 6-(3-Fluorophenyl)-N-(1-propylpiperidin-4-yl)nicotinamide] | 5.57
CNC(=O)N1CCC(NC(=O)c2ccc(-c3cccc(F)c3)nc2)CC1 [Example 592, 6-(3-Fluorophenyl)-N-{1-[(methylamino)carbonyl]piperidin-4-yl}nicotinamide] | 2.44
O=C(NC1CCN(CC2CCOCC2)CC1)c1ccc(-c2cccc(F)c2)nc1 [Example 593, 6-(3-Fluorophenyl)-N-[1-(tetrahydro-2H-pyran-4-ylmethyl)piperidin-4-yl]nicotinamide] | 2
CCOC(=O)N1CCC(NC(=O)c2ccc(-c3cccc(F)c3)nc2)C1 (stereo not drawn) [Example 594, Ethyl 3-({[6-(3-fluorophenyl)pyridin-3-yl]carbonyl}amino)pyrrolidine-1-carboxylate] | 2.7
O=C(NC1CCN(c2ncc3c(n2)CCC3)C1)c1ccc(-c2cccc(F)c2)nc1 (stereo not drawn) [Example 595, N-[1-(6,7-Dihydro-5H-cyclopenta[d]pyrimidin-2-yl)pyrrolidin-3-yl]-6-(3-fluorophenyl)nicotinamide] | 1.06
O=C(NC1CCN(CC2CC2)CC1)c1ccc(-c2cccc(F)c2)nc1 [Example 596, N-[1-(Cyclopropylmethyl)piperidin-4-yl]-6-(3-fluorophenyl)nicotinamide] | 1.93
CN1CCc2nc(N3CCC(NC(=O)c4ccc(-c5cccc(F)c5)nc4)C3)ncc2C1 (stereo not drawn) [Example 597, 6-(3-Fluorophenyl)-N-[1-(6-methyl-5,6,7,8-tetrahydropyrido[4.3-d]pyrimidin-2-yl)pyrrolidin-3-yl]nicotinamide] | 0.85
CC(C)(C)OC(=O)N1CCC(NC(=O)c2ccc(-c3cccc(F)c3)nc2)CC1 [Example 598, tert-Butyl 4-({[6-(3-fluorophenyl)pyridin-3-yl]carbonyl}amino)piperidine-1-carboxylate] | 3.79
CC(C)(C)OC(=O)N1CC(NC(=O)c2ccc(-c3cccc(F)c3)nc2)C1 [Example 599] | 2.92
CC(C)(C)C(=O)N1CC(NC(=O)c2ccc(-c3cccc(F)c3)nc2)C1 [Example 601, N-[1-(2,2-Dimethylpropanoyl)azetidin-3-yl]-6-(3-fluorophenyl)nicotinamide] | 6.76
Cc1cc(C)c(C#N)c(N2CC(NC(=O)c3ccc(-c4cccc(F)c4)nc3)C2)n1 [Example 602] | 2.98
CCc1cn2nc(N3CC(NC(=O)c4ccc(-c5cccc(F)c5)nc4)C3)ccc2n1 [Example 603, N-[1-(2-Ethylimidazo[1,2-b]pyridazin-6-yl)azetidin-3-yl]-6-(3-fluorophenyl)nicotinamide] | 2.29
O=C(NC1CN(c2ncccc2C(F)(F)F)C1)c1ccc(-c2cccc(F)c2)nc1 [Example 604, 6-(3-Fluorophenyl)-N-{1-[3-(trifluoromethyl)pyridin-2-yl]azetidin-3-yl}nicotinamide] | 11.5
O=C(NC1CN(c2cnc3ccccc3n2)C1)c1ccc(-c2cccc(F)c2)nc1 [Example 605, 6-(3-Fluorophenyl)-N-(1-quinoxalin-2-ylazetidin-3-yl)nicotinamide] | 2.9
O=C(NC1CN(c2nc3ccccc3o2)C1)c1ccc(-c2cccc(F)c2)nc1 [Example 606, N-[1-(1,3-Benzoxazol-2-yl)azetidin-3-yl]-6-(3-fluorophenyl)nicotinamide] | 10.8
Cc1ccc(C#N)c(N2CC(NC(=O)c3ccc(-c4cccc(F)c4)nc3)C2)n1 [Example 607, N-[1-(3-Cyano-6-methylpyridin-2-yl)azetidin-3-yl]-6-(3-fluorophenyl)nicotinamide] | 4.44
O=C(NC1CCN(CC(F)(F)F)CC1)c1cnc(-c2cccc(F)c2)c(Cl)c1 [Example 620, 5-Chloro-6-(3-fluorophenyl)-N-[1-(2,2,2-trifluoroethyl)piperidin-4-yl]nicotinamide] | 3.66
O=C(NC1CCN(c2cccnn2)CC1)c1cnc(-c2cccc(F)c2)c(Cl)c1 [Example 621, 5-Chloro-6-(3-fluorophenyl)-N-(1-pyridazin-3-ylpiperidin-4-yl)nicotinamide] | 1.59
CC(C)(C)C(=O)N1CCC(NC(=O)c2cnc(-c3cccc(F)c3)c(Cl)c2)CC1 [Example 622, 5-Chloro-6-(3-fluorophenyl)-N-(1-pivaloylpiperidin-4-yl)nicotinamide] | 3.48
N-(1-{[4-(3,4)-1,3-Thiazol-2-yl]methyl}piperidin-4-yl)- 6-(3-fluorophenyl)nicotinamide [Example 413] | 1000
N-[1-(2-Chloro-2-fluoro-5-methoxybenzyl)piperidin-4- yl]-6-(3-fluorophenyl)nicotinamide [Example 468] | 0.375
N-{1-[1-(2-Ethoxyphenyl)-1H-tetrazol-5- yl]piperidin-4-yl}-6-(3-fluorophenyl)nicotinamide [Example 105] | 0.655

Target: T1, human recombinant H-PGDS
Assay: Slightly modified h-PGDS TBA enzyme assay (Examples 623 onwards)
Type: biochemical
Details: not given
Method: Prostaglandin D Synthase (PGDS) converts the substrate prostaglandin H2 (PGH2) to prostaglandin D2.
Examples 623 onwards were tested in a slightly modified assay: The enzyme assay (30 μls during biological process) contained 100 mM Trizma pH 8.0, 100 μM MgCl2, 0.1 mg/ml IgG Rabbit serum, 5.0 μM PGH2 (Cayman; ethanol solution, #17020), 2.5 mM L-Glutathione (Sigma; reduced form #G4251), 1:40,000 human recombinant H-PGDS (from 1 mg/ml), 0.5% DMSO and inhibitor (varying concentration). 3 μls of diluted inhibitor (dissolved in DMSO) was plated into a 384-well assay plate followed by a 24 μl addition of an enzyme solution containing h-PGDS, Trizma, MgCl2, IgG and L-Glutathione. After pre-incubation of inhibitor and enzyme solution for 10 minutes at room temperature, the reaction was initiated with a 3 μl addition of substrate solution in 10 mM HCl. The reaction was terminated after 40 second by the addition of 3 μl stop buffer containing FeCl2 and citric acid. After addition of 45 μl of TBA plates were heated for one hour in a 70° C. oven. Plates were cooled at room temperature overnight and read on a plate reader the next day with excitation @ 530 nm and emission @ 560 nm. IC50's of inhibitors were calculated with a 4-parameter fit using 11 inhibitor concentrations in duplicate with 1/2 log serial dilutions. […] The highest inhibitor concentration tested was typically 10 μM.

Compound | IC50 [nM]
N#Cc1cccc(-c2ccc(C(=O)NC3CCN(CC(F)(F)F)CC3)cn2)c1 [Example 623, 6-(3-Cyanophenyl)-N-[1-(2,2,2-trifluoroethyl)piperidin-4-yl]nicotinamide] | 104
N#Cc1ccccc1-c1ccc(C(=O)NC2CCN(CC(F)(F)F)CC2)cn1 [Example 624, 6-(2-Cyanophenyl)-N-[1-(2,2,2-trifluoroethyl)piperidin-4-yl]nicotinamide] | 36
O=C(NC1CCN(c2ncccn2)CC1)c1ccc(-c2ccccc2O)nc1 [Example 625, 6-(2-Hydroxyphenyl)-N-(1-pyrimidin-2-ylpiperidin-4-yl)nicotinamide] | 4.06
CC(C)(C)C(=O)N1CCC(NC(=O)c2ccc(-c3ccccc3O)nc2)CC1 [Example 627] | 6.75
CCOC(=O)N1CCC(NC(=O)c2ccc(-c3ccccc3O)nc2)CC1 [Example 628] | 6.22
O=C(NC1CCN(CC2CC2)CC1)c1ccc(-c2ccccc2O)nc1 [Example 629] | 22.2
COCCN1CCC(NC(=O)c2ccc(-c3ccccc3O)nc2)CC1 [Example 630] | 32.8
CCCN1CCC(NC(=O)c2ccc(-c3ccccc3O)nc2)CC1 [Example 631] | 82.4
O=C(NC1CCN(c2cccnn2)CC1)c1ccc(-c2ccccc2O)nc1 [Example 632] | 5.57
CC(C)S(=O)(=O)N1CCC(NC(=O)c2ccc(-c3ccccc3O)nc2)CC1 [Example 633] | 16.6
Cn1nnnc1N1CCC(NC(=O)c2ccc(-c3ccccc3O)nc2)CC1 [Example 634] | 6.13
O=C(NC1CCN(CC(F)(F)F)CC1)c1ccc(-c2cc(F)ccc2O)nc1 [Example 635] | 10.9
CC(C)(C)C(=O)N1CCC(NC(=O)c2ccc(-c3cc(F)ccc3O)nc2)CC1 [Example 636] | 17.2
COCCN1CCC(NC(=O)c2ccc(-c3cc(F)ccc3O)nc2)CC1 [Example 637] | 62.4
CCCN1CCC(NC(=O)c2ccc(-c3cc(F)ccc3O)nc2)CC1 [Example 638] | 83.3
O=C(NC1CCN(c2cccnn2)CC1)c1ccc(-c2cc(F)ccc2O)nc1 [Example 639] | 10000
CCN1CCC(NC(=O)c2ccc(-c3cc(F)ccc3O)nc2)CC1 [Example 640] | 129
CC(C)S(=O)(=O)N1CCC(NC(=O)c2ccc(-c3cc(F)ccc3O)nc2)CC1 [Example 642] | 13.9
Cn1nnnc1N1CCC(NC(=O)c2ccc(-c3cc(F)ccc3O)nc2)CC1 [Example 643] | 7.77
O=C1CC(NC(=O)c2ccc(-c3cccc(F)c3)nc2)c2ccccc2N1 (stereo not drawn) [Example 650, 6-(3-Fluorophenyl)-N-(2-oxo-1,2,3,4-tetrahydroquinolin-4-yl)nicotinamide] | 0.568
O=C(N[C@H]1[C@@H]2CN(CC(F)(F)F)C[C@@H]21)c1ccc(-c2cccc(F)c2)nc1 [Example 651, 6-(3-Fluorophenyl)-N-((1R,5S,6S)-3-(2,2,2-trifluoroethyl)-3-aza-bicyclo[3.1.0]hexan-6-yl)nicotinamide] | 2.01
O=C(N[C@H]1[C@@H]2CNC[C@@H]21)c1ccc(-c2cccc(F)c2)nc1 [Example 653, N-[(1R,5S,6s)-3-azabicyclo[3.1.0]hex-6-yl]-6-(3-fluorophenyl)nicotinamide di-hydrochloride] | 177
